Laboratory results as given in patent EP3939596A1, “A COMPOSITION FOR TREATING HELMINTH INFESTATION IN A MAMMAL” (Bimeda Animal Health Limited, priority 2020, dated 2022).

Legend:
[1] = Plasma/blood level after oral administration; assay type: in vivo; conditions: treated sheep
Description: The Applicant has addressed the problems of the prior art by identifying a natural compound present in ivy (Hedera) that is effective at treating helminth infestations in a mammal. The natural compound is α-hederin, a water soluble pentacyclic triterpenoid saponin. The compound is quite a large molecule and would not be anticipated to be absorbed from the rumen following oral administration, but would be expected to be absorbed from the small intestine. […] This is highly surprising given the low plasma levels of α-hederin in treated sheep.
IVL-11 is a relatively large particle and so would not be anticipated to be absorbed from the rumen following oral administration. Instead, absorption from the small intestine would be predicted.

[2] = Solubility of α-hederin in 1,2-propanediol; assay type: physicochemical
adult fluke = test: In-vivo efficacy study: fluke counts at post mortem in infected sheep after oral treatment, compared with untreated control sheep; conditions: 50 mg/kg
Experimental: Four sheep infected with adult fluke were treated with an IVL-11 oral solution formulation of Table 1: Table 1
The solution was orally administered to the sheep to provide a dosage of α-hederin of 50 mg/kg and then worm counts compared to counts in untreated control sheep. Table 2: summary of efficacy following treatment of four sheep with IVL-11 orally at 50mg/kg compared with fluke counts in untreated control sheep

[3] = Stability of α-hederin solutions on storage (visual); assay type: physicochemical; conditions: for stability of solution: 10 wt.% α-hederin in 85.5 wt.% 1,2-Propanediol and 4.5 wt.% Benzyl alcohol

## α-hederin [IVL-11]
[1]
  plasma / blood levels following administration in vivo: low
[2]; 5% α-hederin in 1,2-propanediol
  solubility in 1,2-propanediol: soluble
[2]; 10% α-hederin in 1,2-propanediol
  solubility in 1,2-propanediol: soluble
Adult fluke; oral solution, 4 sheep
  Arithmetic mean number of fluke at post mortem: 83
Adult fluke; oral, vs untreated control sheep
  % efficacy (reduction in average fluke numbers compared to the control sheep): 21.6%
[3]; 5 % solution, 13 days at room temperature
  stability (appearance) of solution in 1,2-propanediol: cloudy at the top
[3]; 10 % solution, 13 days at room temperature
  stability (appearance) of solution in 1,2-propanediol: became cloudy
[3]; 6 months at 5°C
  stability of solution: stable
[3]; 6 months at room temperature
  stability of solution: stable
[3]; 35°C, over 3 weeks
  stability (appearance) of solution in 1,2-propanediol: no visible changes
